Here are results for one substance from patent US20240325437A1, “METHODS AND COMPOSITIONS FOR USE IN IMPROVING ADAPTIVE IMMUNITY IN THE ELDERLY POPULATION” (Technion Research & Development Foundation Limited, priority 2023, published 2024).

Holding throughout (format): cell-based, mouse
In assay [1] the test system is CD3+ T cells derived from young mice. The assay is described as follows: Viability of young T cells cultured with heme or spleen extract (Zombie, flow cytometry). The settings on record: resting young CD3+ T cells with IL-7, heme for 48 hr. An excerpt:
(§1) T cell isolation and culture. T cells were harvested from mice spleens and/or lymph nodes (inguinal, axillary, brachial, mandibular, and jejunal), and purified by magnetic separation. Depending on the specific experiment, either bulk CD3^+ T cells or bulk CD3^+CD4^+ T cells or pure naïve (CD3^+CD4^+CD62L^+ CD441^lo CD25^−) T cells were purified using commercially available kits (StemCell, 19765A, 19852A, 19851A), following the manufacturer instructions. The protocol for isolating pure naïve T cells from aged mice was modified, as additional antibodies were added to the initial antibody cocktail to overcome changes in T cell population composition in the aged. Specifically, biotinylated anti-mouse/human CD44 (BioLegend, IM7), and biotinylated anti-mouse CD25 (miltenyi 130-123-860, REA568), were added to the company's premade antibody cocktail for negative selection of lymphocytes. Furthermore, the present inventors performed a step of positive selection of CD62L^+ naïve T cells, using anti-mouse CD62L microbeads (miltenyi, 130-049-701) and magnetic columns (miltenyi, 130-042-201). Primary T cells were cultured at 37° C. and 5% CO2 in RPMI media, supplemented with: 10% FBS, 10 mM Hepes, penicillin/streptomycin, and 0.035% beta-mercaptoethanol. For activation, cells were cultured on plates pre-coated (overnight at 4° C.) with anti-CD3 (2 μg/mL; clone 145-2C11, BioXCell) and anti-CD28 (4 μg/mL, clone 37.51; BioXCell). Resting cells were supplemented with 5 ng/ml recombinant murine IL-7 (PEPROTECH, 217-17). In some experiments, cell cultures were supplemented with hemin chloride (cayman, 16487), ammonium iron (III) citrate (thermos scientific, A11199.30), BSA (Sigma-Aldrich, A9647), and spleen extract, at different concentrations, as indicated in relevant experiments.
Collection of a interstitial fluid-enriched fraction (referred to as spleen extract; SE). Spleens from young or aged mice were harvested, and gently dissociated ontop of a […] cell strainer, in 5 mL PBS or RPMI, 5 min centrifugation at 1350 RPM to separate the cellular pellet from the fluidic fraction, enriched with interstitial components.
(§2) Flow cytometry. […] Intracellular ferrous iron was measured using FerroOrange (Dojindo F374).
A general note: Flow cytometry measures light scatter and fluorescence of single cells or particles in a stream.

The test system is the same in assay [2]. Briefly: Proliferation of young T cells stimulated ex vivo with anti-CD3/anti-CD28 (cell trace violet). The settings on record: young T cells activated 48 hr, exposure to heme or SE alone.
From the text: as §1, §2

The test system is the same in assay [3]. The assay is described as follows: Expression of ferritin, HO-1 and CD39 in young T cells by flow cytometry. The settings on record: young T cells exposed to heme.
From the text: as §1, §2

The test system of assay [4] is T cells derived from young mice. The assay is described as follows: Immunophenotyping of young T cells after ex vivo incubation with heme. Conditions: young T cells incubated with heme, without TCR-mediated stimulation.
From the text: as §1, with “For activation, cells were cultured on plates pre-coated (overnight at 4° C.) with anti-CD3 (2 μg/mL; clone 145-2C11, BioXCell) and anti-CD28 (4 μg/mL, clone 37.51; BioXCell). Resting cells were supplemented with 5 ng/ml recombinant murine IL-7 (PEPROTECH, 217-17). In some experiments, cell cultures were supplemented with hemin chloride (cayman, 16487), ammonium iron (III) citrate (thermos scientific, A11199.30), BSA (Sigma-Aldrich, A9647), and spleen extract, at different concentrations, as indicated in relevant experiments.” left out
as §2

Assay [5] has as its system young T cells. The assay is described as follows: Cellular ROS (DCFDA) in young T cells. Conditions: T cells exposed to heme, 48 hr. The procedure:
Functional assays and intracellular ferrous iron staining. Intracellular ferrous iron was measured using FerroOrange (Dojindo, F374). […] All assays were analyzed by flow cytometry.

For assay [6], the system named is young T cells. Briefly: Lipid peroxidation (BODIPY 581/591 C11) in young T cells. Conditions: T cells exposed to heme.
Assay [7] deals with T cells. The assay is described as follows: Lysosomal mass (lysotracker; flow cytometry and fluorescent microscopy). The settings on record: T cells +/- activation +/- heme. The procedure: as §2
Fluorescent microscopy. Cells were stained simultaneously with lysotracker deep red and FerroOrange in HBSS as described above, and imaged using Leica DMI8 inverted fluorescent microscope.

Assay [8] relates to T cells. The assay is described as follows: Lysosomal intracellular activity assay. The settings on record: T cells activated in the presence of heme.
For assay [9], the system named is T cells. Briefly: CD63 expression on T cells by flow cytometry. Conditions: T cells cultured with heme at different concentrations. The procedure: as §2
The subject of the next assay is resting young T cells. Briefly: FOXO1 levels in resting young T cells by flow cytometry. Conditions: resting young T cells incubated ex vivo for 4-48 hr. The protocol:
as §2
Lysosomal dysfunction results in accumulation of late endosomes, also referred to as multi vesicular bodies (MVBs), that are identified by expression of CD63. […] FOXO1 regulates expression of TFEB, the master regulator of lysosomal biogenesis^17. Moreover, FOXO1 expression is critical for maintaining T cell quiescence, and its deficiency induces T cell senescence^18. The present inventors hypothesized that the microenvironment in the aged spleen suppressed FOXO1 expression, thus inducing T cell priming (FIG. 7E-G) and dysregulates lysosomal biogenesis and activity. To test this hypothesis, FOXO1 levels were quantified in resting young T cells that were incubated ex vivo with either heme or SE.

“Also recorded” adds a separate entry of the source.

In the case of hemin chloride [heme], the cell viability entry was “significantly reduced cell viability, in a dose-dependent manner” in assay [1] and “reduces cell viability” in [1] (listed as Heme). Also, in assay [2], the proliferation result is “completely blocked”. The CD39 expression entry is “also induced; also recorded: sufficient to induce CD39” in [3] and “induces expression” in [3] (listed as Heme). Further, the “expression of HO-1” value in assay [3] is on record as “sufficient to induce expression”; in assay [3] (listed as Heme), “induces expression”. For the same substance, the expression of ferritin result in assay [3] is listed as “sufficient to induce expression”; in [3] (listed as Heme), “induces expression”. Besides, the “T cell differentiation / naïve T cell pool” value in assay [4] was “sufficient to induce T cell differentiation and deplete the naïve T cell pool”. For the same substance, the “increase in cellular ROS” value with young T cells [5] is on record as ~2 fold. In addition, the lipid peroxidation result in the assay on young T cells [6] is given as “large induction in lipid peroxidation”. Also, the lysosomal mass result with T cells [7] was “downregulated lysosomal mass”. Further, in the assay with T cells [8], the lysosomal activity result is given as “suppressed”. For the same substance, in the assay on T cells [9], the CD63 expression entry is “induced CD63 expression, in a dose-dependent manner”. Further, in the assay with resting young T cells, the FOXO1 levels entry is “dropped within 4 hr and continued to drop during the 48 hr of incubation”.
